Test results from ChEMBL document CHEMBL1201861, “Genomics of Drug Sensitity in Cancer screening data, Wellcome Trust Sanger Institute”.

Key:
Test in all cases: cells
EFO-21 = assay type: functional, cell-based; conditions: Homo sapiens;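 note: growth inhibition of EFO-21 cells measured with a viability assay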
Description: SANGER: Inhibition of human EFO-21 cell growth in a cell viability assay.

EFO-27 = assay type: functional, cell-based; conditions: Homo sapiens;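 note: growth inhibition of EFO-27 cells, read out with a cell viability assay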
Description: SANGER: Inhibition of human EFO-27 cell growth in a cell viability assay.

H4 = assay type: functional, cell-based; conditions: Homo sapiens
Description: SANGER: Inhibition of human H4 cell growth in a cell viability assay.

HCC1937 = assay type: functional, cell-based; conditions: Homo sapiens;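 note: growth inhibition measured with a cell viability read-out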
Description: SANGER: Inhibition of human HCC1937 cell growth in a cell viability assay.

HCT-116 = assay type: functional, cell-based; conditions: Homo sapiens
Description: SANGER: Inhibition of human HCT-116 cell growth in a cell viability assay.

HMV-2 cell line = assay type: functional, cell-based; conditions: Homo sapiens;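 note: growth inhibition of HMV-II cells, read out with a cell viability assay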
Description: SANGER: Inhibition of human HMV-II cell growth in a cell viability assay.

HT-1080 = assay type: functional, cell-based; conditions: Homo sapiens
Description: SANGER: Inhibition of human HT-1080 cell growth in a cell viability assay.

HT1197 = assay type: functional, cell-based, HT-1197; conditions: Homo sapiens
Description: SANGER: Inhibition of human HT-1197 cell growth in a cell viability assay.

HuO-3N1 = assay type: functional, cell-based; conditions: Homo sapiens;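 note: cell viability readout used to measure how strongly compounds suppress proliferation of human HuO-3N1 cells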
Description: SANGER: Inhibition of human HuO-3N1 cell growth in a cell viability assay.

LN-405 = assay type: functional, cell-based; conditions: Homo sapiens
Description: SANGER: Inhibition of human LN-405 cell growth in a cell viability assay.

MDA-MB-361 = assay type: functional, cell-based; conditions: Homo sapiens
MKN-1 = assay type: functional, cell-based; conditions: Homo sapiens;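 note: growth inhibition of human MKN1 cells, read out by a cell viability measurement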
Description: SANGER: Inhibition of human MKN1 cell growth in a cell viability assay.

NCI-H1573 = assay type: functional, cell-based; conditions: Homo sapiens;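 note: growth inhibition of NCI-H1573 cells, read out with a cell viability assay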
Description: SANGER: Inhibition of human NCI-H1573 cell growth in a cell viability assay.

NCI-H1651 = assay type: functional, cell-based; conditions: Homo sapiens;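 note: Read-out is a cell viability assay, with IC50 expressing inhibition of NCI-H1651 cell growth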
Description: SANGER: Inhibition of human NCI-H1651 cell growth in a cell viability assay.

NCI-H1693 = assay type: functional, cell-based; conditions: Homo sapiens;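 note: growth inhibition of the human cell line, read out with a cell viability assay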
Description: SANGER: Inhibition of human NCI-H1693 cell growth in a cell viability assay.

NCI-H1792 = assay type: functional, cell-based; conditions: Homo sapiens;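 note: growth inhibition of human NCI-H1792 cells, read out as cell viability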
Description: SANGER: Inhibition of human NCI-H1792 cell growth in a cell viability assay.

NCI-H1993 = assay type: functional, cell-based; conditions: Homo sapiens;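 note: growth inhibition of the cancer cell line, assessed with a cell viability assay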
Description: SANGER: Inhibition of human NCI-H1993 cell growth in a cell viability assay.

NCI-H2052 = assay type: functional, cell-based; conditions: Homo sapiens;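 note: growth inhibition of NCI-H2052 cells, read out with a cell viability assay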
Description: SANGER: Inhibition of human NCI-H2052 cell growth in a cell viability assay.

PA-1 = assay type: functional, cell-based; conditions: Homo sapiens;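 note: IC50 for suppression of PA-1 cell proliferation, determined with a cell viability read-out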
Description: SANGER: Inhibition of human PA-1 cell growth in a cell viability assay.

S-117 = assay type: functional, cell-based; conditions: Homo sapiens
Description: SANGER: Inhibition of human S-117 cell growth in a cell viability assay.

SK-HEP1 = assay type: functional, cell-based, SK-HEP-1; conditions: Homo sapiens;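 note: cell viability readout used to quantify reduction in proliferation of human SK-HEP-1 cells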
Description: SANGER: Inhibition of human SK-HEP-1 cell growth in a cell viability assay.

SN12C = assay type: functional, cell-based; conditions: Homo sapiens;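 note: growth inhibition of human SN12C cells, measured by a cell viability assay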
Description: SANGER: Inhibition of human SN12C cell growth in a cell viability assay.

SW1463 = assay type: functional, cell-based; conditions: Homo sapiens;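 note: growth inhibition of SW1463 cells, determined with a cell viability assay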
Description: SANGER: Inhibition of human SW1463 cell growth in a cell viability assay.

SW1573 = assay type: functional, cell-based; conditions: Homo sapiens;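 note: growth inhibition of SW1573 cells, read out with a cell viability assay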
Description: SANGER: Inhibition of human SW1573 cell growth in a cell viability assay.

SW1783 = assay type: functional, cell-based; conditions: Homo sapiens;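 note: cell growth inhibition measured with a viability assay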
Description: SANGER: Inhibition of human SW1783 cell growth in a cell viability assay.

T-24 = assay type: functional, cell-based; conditions: Homo sapiens;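 note: growth inhibition of T-24 cells, read out with a cell viability assay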
Description: SANGER: Inhibition of human T-24 cell growth in a cell viability assay.

CWR22R = assay type: functional, cell-based; conditions: Homo sapiens, 22Rv1;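 note: growth inhibition of 22Rv1 cells, read out with a cell viability assay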
Description: SANGER: Inhibition of human 22RV1 cell growth in a cell viability assay.

769-P = assay type: functional, cell-based; conditions: Homo sapiens
Description: SANGER: Inhibition of human 769-P cell growth in a cell viability assay.

A204 = assay type: functional, cell-based; conditions: Homo sapiens;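 note: growth inhibition of human A204 cells, read out with a cell viability assay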
Description: SANGER: Inhibition of human A204 cell growth in a cell viability assay.

A-431 = assay type: functional, cell-based; conditions: Homo sapiens;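 note: growth inhibition of A-431 cells, determined with a cell viability read-out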
Description: SANGER: Inhibition of human A431 cell growth in a cell viability assay.

AGS = assay type: functional, cell-based; conditions: Homo sapiens;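 note: growth inhibition of AGS cells, determined with a cell viability assay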
Description: SANGER: Inhibition of human AGS cell growth in a cell viability assay.

ASPC1 = assay type: functional, cell-based; conditions: Homo sapiens;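 note: growth inhibition of AsPC-1 cells, read out with a cell viability assay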
Description: SANGER: Inhibition of human AsPC-1 cell growth in a cell viability assay.

BEN = assay type: functional, cell-based; conditions: Homo sapiens;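 note: growth inhibition of the BEN cell line, read out with a cell viability assay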
Description: SANGER: Inhibition of human BEN cell growth in a cell viability assay.

BPH-1 = assay type: functional, cell-based; conditions: Homo sapiens;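 note: cell viability assay measuring growth inhibition of human BPH-1 cells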
Description: SANGER: Inhibition of human BPH-1 cell growth in a cell viability assay.

C-33-A = assay type: functional, cell-based; conditions: Homo sapiens;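 note: cell viability assay measuring growth inhibition of C-33-A cells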
Description: SANGER: Inhibition of human C-33-A cell growth in a cell viability assay.

CAL-85-1 = assay type: functional, cell-based; conditions: Homo sapiens;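 note: growth inhibition of human CAL-85-1 cells, read out with a cell viability assay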
Description: SANGER: Inhibition of human CAL-85-1 cell growth in a cell viability assay.

WM-115 = assay type: functional, cell-based; conditions: Homo sapiens
Description: SANGER: Inhibition of human WM-115 cell growth in a cell viability assay.

YKG-1 = assay type: functional, cell-based; conditions: Homo sapiens;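 note: cell growth inhibition, read out with a viability assay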
Description: SANGER: Inhibition of human YKG-1 cell growth in a cell viability assay.

Hs-578T = assay type: functional, cell-based; conditions: Homo sapiens
Description: SANGER: Inhibition of human Hs-578-T cell growth in a cell viability assay.

OAW-42 = assay type: functional, cell-based; conditions: Homo sapiens;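 note: growth inhibition of OAW-42 cells, read out with a cell viability assay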
Description: SANGER: Inhibition of human OAW-42 cell growth in a cell viability assay.

8505C = assay type: functional, cell-based; conditions: Homo sapiens
Description: SANGER: Inhibition of human 8505C cell growth in a cell viability assay.

LB373-MEL-D = assay type: functional, cell-based, Homo sapiens; conditions: Homo sapiens, LB373-MEL-D;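 note: growth inhibition of the cell line, read out in a cell viability assay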
Description: SANGER: Inhibition of human LB373-MEL-D cell growth in a cell viability assay.

HC-1 = assay type: functional, cell-based, Homo sapiens; conditions: Homo sapiens, HC-1;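 note: growth inhibition of HC-1 cells measured by a cell viability assay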
Description: SANGER: Inhibition of human HC-1 cell growth in a cell viability assay.

Measured: IC50

O=C1NC(=O)c2c1c(-c1ccccc1Cl)cc1[nH]c3ccc(O)cc3c21
1.07 µM: BPH-1
1.02 µM: 769-P
1.2 µM: HT-1080
0.953 µM: H4
not listed: Hs-578T | OAW-42 | 8505C | LB373-MEL-D | HC-1
> 2 µM: all other assays above

O=C(NCCCNc1nc(Nc2cccc(NC(=O)N3CCCC3)c2)ncc1I)c1cccs1 [BX-795]
3.54 µM: SW1783
3.88 µM: WM-115
1.77 µM: YKG-1
0.804 µM: PA-1
2.56 µM: AGS
1.1 µM: H4
2.42 µM: Hs-578T
2.6 µM: HuO-3N1
3.8 µM: 8505C
3.14 µM: BPH-1
2.76 µM: A-431
1.15 µM: A204
4.99 µM: HCT-116
2.97 µM: SK-HEP1
3.66 µM: OAW-42
not listed: LB373-MEL-D | HC-1
> 5 µM: all other assays above

Cc1ccc(-n2nc(C(C)(C)C)cc2NC(=O)Nc2ccc(OCCN3CCOCC3)c3ccccc23)cc1 [DORAMAPIMOD]
8.41 µM: T-24
not listed: HC-1
> 10 µM: all other assays above

CS(=O)(=O)N1CCN(Cc2cc3nc(-c4cccc5[nH]ncc45)nc(N4CCOCC4)c3s2)CC1 [PICTILISIB]
0.851 µM: H4
1.2 µM: Hs-578T
0.314 µM: BPH-1
2.46 µM: CWR22R
1.07 µM: WM-115
3.09 µM: HT-1080
0.642 µM: HuO-3N1
3.75 µM: SW1573
0.872 µM: OAW-42
0.439 µM: MDA-MB-361
0.532 µM: PA-1
3.62 µM: AGS
0.522 µM: A204
3.83 µM: 769-P
3.04 µM: YKG-1
2.27 µM: A-431
not listed: HMV-2 cell line | LB373-MEL-D | HC-1
> 4 µM: all other assays above

CC1=C(/C=C/C(C)=C/C=C/C(C)=C/C(=O)O)C(C)(C)CCC1 [TRETINOIN]
0.832 µM: HuO-3N1
7.44 µM: BPH-1
> 10 µM: all other assays above

CC1(C)CCC(c2ccc(Cl)cc2)=C(CN2CCN(c3ccc(C(=O)NS(=O)(=O)c4ccc(N[C@H](CCN5CCOCC5)CSc5ccccc5)c(S(=O)(=O)C(F)(F)F)c4)cc3)CC2)C1 [NAVITOCLAX]
1.72 µM: NCI-H2052
0.24 µM: BEN
0.961 µM: OAW-42
0.277 µM: WM-115
0.956 µM: PA-1
not listed: LB373-MEL-D | HC-1
> 2 µM: all other assays above
